These results are taken from US11274332B2, “Methods of administering 3,4-diaminopyridine” (SERB SA, priority 2011, dated 2022).

The experiment concerns the target T1, cloned human Kv1.2 potassium channel (Homo sapiens, UniProt P16389).
T1 construct: expressed in transfected cells
In words: PatchXpress inhibition of cloned human Kv1.2 in HEK293 cells (Example 6). Type of experiment: cell-based. The following applies: hKv1.2, up to 3000 μM. An excerpt: The objective of this study was to examine the in vitro effects and determine the […] of 3,4-DAP phosphate and the metabolite N-(4-aminopyridin-3-yl) acetamide HCl on the following ion channels: cloned human Kv1.1 potassium channel (encoded by the human KCNA1 gene, expressed in HEK293 cells), cloned human Kv1.2 potassium channel (encoded by the human KCNA2 gene, expressed in HEK293 cells), cloned human Kv1.3 potassium channel (encoded by the human KCNA3 gene, expressed in CHO cells), cloned human Kv1.4 potassium channel (encoded by the human KCNA4 gene, expressed in HEK293 cells), cloned human Kv1.5 potassium channel (encoded by the human KCNA5 gene and expressed in CHO cells), responsible for IKur, ultra-rapid delayed rectifier potassium current.
Chemicals used in solution preparation were purchased from Sigma-Aldrich (St. Louis, Mo.), unless otherwise noted, and were of ACS reagent grade purity or higher. Stock solutions of each test article (100 mM, 30 mM and 1.00 mM 3,4-DAP phosphate and 100 mM N-(4-aminopyridin-3-yl)acetamide) were prepared in sterile water and stored refrigerated. […]
In preparation for a recording session, intracellular solution was loaded into the intracellular compartments of the Sealchip16. […] After establishment of a whole-cell configuration, membrane currents were recorded using dual-channel patch clamp amplifiers in the PatchXpress®. […]

T1 sequence (P16389 whole entry): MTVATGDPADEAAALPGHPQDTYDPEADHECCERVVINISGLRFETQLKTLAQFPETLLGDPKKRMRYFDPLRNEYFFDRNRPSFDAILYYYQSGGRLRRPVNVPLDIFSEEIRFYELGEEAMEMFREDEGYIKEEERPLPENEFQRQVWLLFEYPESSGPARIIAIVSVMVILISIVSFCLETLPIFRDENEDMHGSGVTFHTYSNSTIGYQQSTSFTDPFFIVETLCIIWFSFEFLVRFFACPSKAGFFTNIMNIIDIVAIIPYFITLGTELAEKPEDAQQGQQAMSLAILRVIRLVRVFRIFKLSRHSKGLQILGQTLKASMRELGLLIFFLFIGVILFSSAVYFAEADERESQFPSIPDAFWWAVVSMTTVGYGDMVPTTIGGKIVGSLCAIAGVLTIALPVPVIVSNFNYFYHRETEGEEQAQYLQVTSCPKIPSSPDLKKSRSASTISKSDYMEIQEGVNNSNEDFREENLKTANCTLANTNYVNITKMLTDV

In the case of `CC(=O)Nc1cnccc1N` [3-N-acetyl amifampridine, N-(4-aminopyridin-3-yl)acetamide], the “activity on K+ channel” value is “inactive”. Further, where the note is “listed as N-acetyl metabolite”, the “activity on K+ channel” value is given as “not active”.
